Measured values taken from patent publication US8883203B2, “Solid oral dosage form containing an enhancer” (Merrion Research III Limited, priority 2006, dated 2014).
One block for each compound: values may come before it.

Assays:
[1] = Closed loop rat model, intraduodenal TRH with enhancer, serum TRH; assay type: in vivo, Male Wistar rats; details: 500 μg or 1000 μg TRH with 35 mg enhancer, interduodenal bolus
Method: Male Wistar rats (weight range 250 g-350 g) were anaesthetized with ketamine hydrochloride/acepromazine. […] All intraduodenal dose volumes (for samples and control) were 1 ml/kg. The proximal end of the segment was ligated and the loop was sprayed with isotonic saline (37° C.) to provide moisture and then replaced in the abdominal cavity avoiding distension. The incision was closed with surgical clips. A group of animals were administered TRH in PBS (100 μg in 0.2 ml) by subcutaneous injection as a reference.

[2] = system: Caco-2 monolayers; assay: TEER of Caco-2 monolayers with MCFA sodium salts; assay type: cell-based; details: sodium salts with 3H-TRH, over 2 hours, concentrations of Table 1
Method: Cell Culture: Caco-2 cells were cultured in Dulbecco's Modified Eagles Medium (DMEM) 4.5 g/L glucose supplemented with 1% (v/v) non-essential amino acids; 10% fetal calf serum and 1% penicillin/streptomycin. […] The cells were grown and expanded in standard tissue culture flasks and were passaged once they attained 100% confluence. The Caco-2 cells were then seeded on polycarbonate filter inserts (Costar; 12 mm diameter, 0.4 μm pore size) at a density of 5×10^5 cells/cm^2 and incubated in six well culture plates with a medium change every second day. Confluent monolayers between day 20 and day 30 seeding on filters and at passages 30-40 were used throughout these studies.
The transport experiments were performed in Hank's Balanced Salt Solution (HBSS) containing 25 mM N[2-hydroxyethyl]-piperazine-N′-[2-ethanesulfonic acid] (HEPES) buffer, pH 7.4 at 37° C. Due to variations in solubilities, various concentrations of the different MCFA sodium salts and various apical buffers were used as shown in Table 1. In all cases the basolateral chamber contained regular HBSS+HEPES.
After removing the cell culture medium, the monolayers were placed in wells containing prewarmed HBSS (37° C.); 1 ml apically and 2 ml basolaterally. Monolayers were incubated at 37° C. for 30 mins. Then at time zero, apical HBSS was replaced with the relevant apical test solution containing the radiolabelled compounds with and without the enhancer compound. […] The plates were placed on an orbital shaker in an incubator (37° C.). Transport across the monolayers was followed by basolateral sampling (1 ml) at 30 min. intervals up to 120 mins. At each 30 min. interval each insert was transferred to a new well containing 2 ml fresh prewarmed HBSS. Apical stock radioactivity was determined by taking 10 μl samples at t=0 and t=120 mins. […] Mean values for ^3H-TRH concentrations were calculated for the apical and basolateral solutions at each time point.

[3] = system: APTT; assay: Closed-loop rat segment, intraileal USP heparin with enhancer, APTT response; assay type: in vivo; details: USP heparin 1000 IU, enhancer 10 and 35 mg
Text: APTT measurements were taken at various time points.

[4] = system: anti-factor Xa activity; assay: Closed-loop rat segment, intraileal USP heparin with enhancer, anti-factor Xa response; details: USP heparin 1000 IU
Method: The procedure carried out in Example 1(a) above was repeated using USP heparin in place of TRH and dosing intraileally rather than intraduodenally. A mid-line incision was made in the abdomen and the distal end of the ileum located (about 10 cm proximal to the ileo-caecal junction). 7-9 cm of tissue was isolated and the distal end ligated, taking care to avoid damage to surrounding blood vessels. Heparin absorption as indicated by […] (APTT) response was measured by placing a drop of whole blood (freshly sampled from the tail artery) on the test cartridge of Biotrack 512 coagulation monitor. APTT measurements were taken at various time points.
Citrated blood samples were centrifuged at 3000 rpm for 15 mins. to obtain plasma for anti-factor Xa analysis. […] The control in each case is a solution of the same heparin concentration containing no enhancer.

[5] = system: anti-factor Xa activity; assay: Intraduodenal LMWH with enhancers in rats (open loop), anti-factor Xa; assay type: in vivo, Male Wistar rats; details: 1000 IU parnaparin sodium intraduodenally
[6] = system: anti-factor Xa activity; assay: Site of administration of LMWH with sodium caprate in dogs, anti-factor Xa; assay type: in vivo, beagle dogs; details: 45,000 IU LMWH and 0.55 g sodium caprate, oral, intrajejunal, intracolonic
Text: Four beagle dogs (10-15 Kg) were surgically fitted with catheters to the jejunum and colon respectively. […] 3,200 IU Fluxum™ SC was included in the study as a subcutaneous reference.

[7] = cited from earlier work

serum levels of TRH over the control TRH solution [1]: significantly increases
Compound: CCCCCCCC(=O)[O-].[Na+] [NaC8, sodium caprylate]

Compound: CCCCCCCCCC(=O)[O-].[Na+] [NaC10, sodium caprate]
effect on TEER (Ωcm^2) compared to the control [2]: minimal reduction in TEER
serum levels of TRH over the control TRH solution [1]: significantly increases
heparin absorption by APTT response compared to control heparin solution [3]: significant increase in absorption
anti-factor Xa activity relative to control heparin solution ([4]; enhancer 10 mg): significant increase in anti-factor Xa activity
anti-factor Xa activity relative to control heparin solution ([4]; enhancer 35 mg): significant increase in anti-factor Xa activity

Compound: CCCCCCCCCCCCCC(=O)[O-].[Na+] [Batch C14]
effect on TEER (Ωcm^2) compared to the control [2]: minimal reduction in TEER

Compound: CCCCCCCCCCCCCCCCCC(=O)[O-].[Na+] [Batch C18]
effect on TEER (Ωcm^2) compared to the control [2]: minimal reduction in TEER

systemic delivery of LMWH in the absence of enhancer [5]: relatively poor
intestinal absorption of LMWH versus absorption from the stomach [6]: considerably higher
Compound: parnaparin sodium [LMWH]

Compound: NCCCC(O)(P(=O)(O)O)P(=O)(O)O [alendronate, Alendronate monosodium trihydrate]
further share of the dose absorbed excreted in the urine ([7]; over the next 64 hours): 5%
share of the dose absorbed excreted in the urine ([7]; within 8 hours, oral conventional forms): 40%

Compound: CCCCCCCCCCCC(=O)[O-].[Na+] [Batch C12, sodium laurate]
effect on TEER (Ωcm^2) compared to the control [2]: some cell damage (reduction in TEER)
